Laboratory results as given in patent US9522962B2, “Peptides, conjugates and method for increasing immunogenicity of a vaccine” (Academisch Ziekenhuis Leiden h.o.d.n. LUMC, priority 2010, dated 2016).
“Also recorded” adds a separate entry of the source. Where two headings read alike, the source gives them in different places. Square brackets hold non-standard residues; d marks the D form. Ends that are not written are not given here. * marks the point of attachment. Biotin = O=C1N[C@H]2[C@H](CS[C@H]2CCCCC(=O)*)N1; Ahx = NCCCCCC(=O)O

How the values were obtained:
[1] = system: antibodies in TETAQUIN® (anti-TTd antibodies); type: binding, human
[2] = system: antibodies in individual human sera (e.g. serum 034960); test: Tettox ELISA of biotinylated peptides on individual human sera; type: binding; conditions: for ELISA OD SERUM 034960: human serum 034960 diluted 100x
Protocol: a 96-wells plate (preferably from Euro-Diagnostica, Arnhem, The Netherlands) is coated with streptavidin. The streptavidin coated 96 wells plate is blocked with PBS containing 5% BSA (200 μl/well, 1 h, room temperature). Subsequently, the plate is washed three times with PBS containing 0.05% TWEEN20® (polysorbate 20). A biotinylated peptide is coated by 1 h incubation at room temperature with 100 μl/well of a 2 μg/ml solution of the biotinylated peptide in PBS containing 1% BSA. The plate is washed three times with PBS containing 0.05% TWEEN20® (polysorbate 20) followed by incubation for 1 h at room temperature with 100 μl serum from […] a human subject as defined above (preferably having a high titer of anti-TTd antibodies) that had been diluted at least 100, 200, 400, 500 or 1000 times and preferably not more than 100,000, 10,000, 7,500, 5,000 or 2,500 times with PBS containing 1% BSA. Then the plate is washed three times with PBS containing 0.05% TWEEN20®(polysorbate 20). Each well is incubated for 1 h at room temperature with a HRP-conjugated IgG antibody (mouse anti-human IgG-HRP monoclonal, clone G18-145, cat no 555788, Becton Dickinson, 100 μl/well of a 1000× dilution in PBS containing 0.05% TWEEN20® (polysorbate 20)) after which the plate is washed three times with PBS containing 0.05% TWEEN20® (polysorbate 20). Development is performed with 2,2′-azino-di-(3-ethylbenzthiazoline sulfonic acid), ABTS+H2O2 1/1000, 100 μl/well. Optical density is measured at 415 nm with a BIO-RAD, model 680, microplate reader. In each plate, preferably a negative contol is included, more preferably at least in triplicate. A preferred negative contol is serum from a human subject without detectable anti-TTd antibodies. Another preferred negative control is a solution of BSA. A peptide according to (ii) above is a peptide according to the invention if it is bound by antibodies in at least 40, 45, 50, 55, 60, 65, 70, 75, 80, 85, 87, 90, 91, 92, 93, 94, 95, 96, 97, 98, 99% most preferably 100% of the tested human serum samples. A peptide is considered to be bound by antibodies in a serum sample if the determined optical density for that particular serum sample is at least 2.0, more preferably 2.5, 3.0, 3.5 or more times higher as compared to the optical density that is determined for the negative control.
Streptavidin coated 96 wells plates (Euro-Diagnostica) were blocked with PBS containing 5% BSA (200 μl/well, 1 h, room temperature). Plates were washed three times with PBS containing 0.05% TWEEN20® (polysorbate 20). Coating of the biotinylated peptides was performed by 1 h incubation at room temperature with 100 μl/well of a 2 μg/ml solution of the biotinylated peptide in PBS containing 1% BSA. Plates were washed three times with PBS containing 0.05% TWEEN20®. Wells were incubated for 1 h at room temperature with either 100 μl TETAQUIN® […] that had been diluted 800× with PBS containing 1% BSA or with 100 μl human serum that had been diluted 100× with PBS containing 1% BSA. Plates were washed three times with PBS containing 0.05% TWEEN20® (polysorbate 20). Each well was incubated for 1 h at room temperature with a HRP-conjugated IgG antibody (mouse anti-human IgG-HRP monoclonal, clone G18-145, cat no 555788, Becton Dickinson, 100 μl/well of a 1000× dilution in PBS containing 0.05% TWEEN20® (polysorbate 20)). Plates were washed three times with PBS containing 0.05% TWEEN20® (polysorbate 20). Development was performed with 2,2′-azino-di-(3-ethylbenzthiazoline sulfonic acid), ABTS+H2O2 1/1000, 100 μl/well. Optical density was measured at 415 nm with a BIO-RAD, model 680, microplate reader.
Thereafter, the inventors tested these 7 peptides on individual sera, because an epitope is needed to which every person makes antibodies.

OVA-specific CD8 T cells = test: Systemic antigen-specific T cell priming in TNP-BSA immunized mice challenged with TNP-OVA; type: in vivo
Protocol: Mice were repeatedly immunized with TNP-BSA resulting in high titers of circulating antibodies against the hapten TNP (TNP immunized) or left non-immunized (naïve).
After 1-2 months all mice were injected with naïve OVA-specific CD8 T cells which were labelled with the fluorescent dye CFSE. After 24 hrs the mice were injected with a single dose of TNP-OVA. 3 days later the mice were sacrificed and OVA-specific proliferation of the labelled T cells was analysed in spleen and lymph nodes by flow cytometry (FIGS. 2a and 2b). The symbols represent individual mice. […] Thus, systemic antigen-specific T cell priming can be facilitated by pre-existing circulating antibodies against hapten-epitopes.

[3] = Table 6, conservative substitutions scan of […]

“F I G I T E L K K L E S K I N K A F Z O (FIGITELKKLESKINKAF[Ahx]K; not fully specified (residue 20)) [0942-26]” was tested, and the “ELISA OD TETAQUIN” value ([1]; Table 5, Ala scan of […]) was 1.24 and the “ELISA OD SERUM 034960” value ([2]; Table 5, Ala scan of […]) was 1.39.

For “F I G I T E L K K L E S K I N K L F Z O (FIGITELKKLESKINKLF[Ahx]K; not fully specified (residue 20)) [0942-44]”, the “ELISA OD TETAQUIN” value [1, 3] was 1.30 and the “ELISA OD SERUM 034960” value [2, 3] was 1.47.

In the case of “F I G I T E L K K L E S K I N K V A Z O (FIGITELKKLESKINKVA[Ahx]K; not fully specified (residue 20)) [0942-27]”, the “ELISA OD TETAQUIN” value ([1]; Table 5, Ala scan of […]) is reported as 1.26 and the “ELISA OD SERUM 034960” value ([2]; Table 5, Ala scan of […]) is reported as 1.20.

“F I G I T E L K K L E S K I N K V F Z O [0942-09]” was tested, and the OD ([1]; Table 3, further length variants and Lys(formyl) variants, […], neg. control OD 0.30) was 2.30, the “ELISA OD TETAQUIN” value ([1]; Table 5, Ala scan of […]) was 1.26 and the “ELISA OD TETAQUIN” value [1, 3] was 1.26. The “ELISA OD SERUM 034960” value ([2]; Table 5, Ala scan of […]) was 1.36 and the “ELISA OD SERUM 034960” value [2, 3] was 1.36.

For “F I G I T E L K K L E S K I N K V Y Z O (FIGITELKKLESKINKVY[Ahx]K; not fully specified (residue 20); also: O: biotin modification, exact residue form not clear) [0942-45]”, the “ELISA OD TETAQUIN” value [1, 3] was 1.11 and the “ELISA OD SERUM 034960” value [2, 3] was 1.23.

With “F I G I T E L K K L E S K I N R V F Z O (FIGITELKKLESKINRVF[Ahx]K(Biotin)) [0942-43]” the “ELISA OD TETAQUIN” value [1, 3] was 1.26 and the “ELISA OD SERUM 034960” value [2, 3] was 1.31.

For “F I G I T E L K K L E S K I Q K V F Z O (FIGITELKKLESKIQKVF[Ahx]K(Biotin)) [0942-42]”, the “ELISA OD TETAQUIN” value [1, 3] was 1.41 and the “ELISA OD SERUM 034960” value [2, 3] was 1.26.

With “F I G I T E L K K L E S K L N K V F Z O (FIGITELKKLESKLNKVF[Ahx]K(Biotin)) [0942-41]” the “ELISA OD TETAQUIN” value [1, 3] was 1.11 and the “ELISA OD SERUM 034960” value [2, 3] was 1.32.

For “F I G I T E L K K L E S R I N K V F Z O (FIGITELKKLESRINKVF[Ahx]K(Biotin)) [0942-40]”, the “ELISA OD TETAQUIN” value [1, 3] was 1.19 and the “ELISA OD SERUM 034960” value [2, 3] was 1.27.

In the case of “F I G I T E L K K L E T K I N K V F Z O (FIGITELKKLETKINKVF[Ahx]K(Biotin)) [0942-39]”, the “ELISA OD TETAQUIN” value [1, 3] is reported as 0.88 and the “ELISA OD SERUM 034960” value [2, 3] is reported as 1.04.

In the case of “F I G I T E L K R L E S K I N K V F Z O (FIGITELKRLESKINKVF[Ahx]K(Biotin)) [0942-36]”, the “ELISA OD TETAQUIN” value [1, 3] is reported as 1.12 and the “ELISA OD SERUM 034960” value [2, 3] is reported as 1.23.

In the case of “F I G I T E L R K L E S K I N K V F Z O (FIGITELRKLESKINKVF[Ahx]K(Biotin)) [0942-35]”, the “ELISA OD TETAQUIN” value [1, 3] is reported as 1.02 and the “ELISA OD SERUM 034960” value [2, 3] is reported as 0.90.

For “F I G L T E L K K L E S K I N K V F Z O (FIGLTELKKLESKINKVF[Ahx]K(Biotin)) [0942-31]”, the “ELISA OD TETAQUIN” value [1, 3] was 0.97 and the “ELISA OD SERUM 034960” value [2, 3] was 1.19.

With “F I S I T E L K K L E S K I N K V F Z O (FISITELKKLESKINKVF[Ahx]K(Biotin)) [0942-30]” the “ELISA OD TETAQUIN” value [1, 3] was 1.10 and the “ELISA OD SERUM 034960” value [2, 3] was 1.32.

In the case of “F L G I T E L K K L E S K I N K V F Z O (FLGITELKKLESKINKVF[Ahx]K(Biotin)) [0942-29]”, the “ELISA OD TETAQUIN” value [1, 3] is reported as 1.19 and the “ELISA OD SERUM 034960” value [2, 3] is reported as 1.29.

In the case of QYIKANSKFIGITELKKLESKIZO [β32], the “binding to TETAQUIN (screen of overlapping 22-mer TTx peptides)” value ([1]; FIG. 3 (α-chain), FIG. 4 (β-chain)) is reported as “good binding; also recorded: antibodies present”, the OD ([1]; Table 2, length variants of peptide β-32, section 'With linker', […] diluted 800x, OD at 415 nm) is reported as 1.3 and the OD ([1]; Table 2, length variants of peptide β-32, section 'Without linker' (sequence listed without Z O), […]) is reported as 1.3. For the same molecule, the “ELISA OD, effect of longer spacer and C- versus N-terminal biotinylation” value ([1]; Table 4, antibody source not given) was 1.16 and the “antibodies against the peptide in individual donor sera” value ([2]; 14 individual sera, FIGS. 5a-5n) was “All donors have antibodies”.

“Y I G I T E L K K L E S K I N K V F Z O (YIGITELKKLESKINKVF[Ahx]K(Biotin)) [0942-28]” was tested, and the “ELISA OD TETAQUIN” value [1, 3] was 1.23 and the “ELISA OD SERUM 034960” value [2, 3] was 1.30.

B1: TNP-OVA: non-related protein antigen (OVA) coupled to the hapten TNP (trinitrophenyl group) (conjugate, UniProt P01012 2-386, looked up)
Ovalbumin: GSIGAASMEFCFDVFKELKVHHANENIFYCPIAIMSALAMVYLGAKDSTRTQINKVVRFDKLPGFGDSIEAQCGTSVNVHSSLRDILNQITKPNDVYSFSLASRLYAEERYPILPEYLQCVKELYRGGLEPINFQTAADQARELINSWVESQTNGIIRNVLQPSSVDSQTAMVLVNAIVFKGLWEKAFKDEDTQAMPFRVTEQESKPVQMMYQIGLFRVASMASEKMKILELPFASGTMSMLVLLPDEVSGLEQLESIINFEKLTEWTSSNVMEERKIKVYLPRMKMEEKYNLTSVLMAMGITDVFSSSANLSGISSAESLKISQAVHAAHAEINEAGREVVGSAEAGVDAASVSEEFRADHPFLFCIKHIATNAVLFFGRCVSP
modifications: trinitrophenyl hapten conjugate
With B1 the “OVA-specific proliferation of CFSE labelled T cells in spleen and lymph nodes” value (OVA-specific CD8 T cells; TNP immunized mice vs other groups, single dose TNP-OVA, analysed 3 days later by flow cytometry, P<0.001) was “significantly different” and the “T cell responses against OVA” value (OVA-specific CD8 T cells; TNP-BSA immunized mice compared to control mice vaccinated with BSA without TNP) was “much higher level”.
